This is an account of results in patent publication US8586369B2, “Ion channel-forming peptides” (The Regents of the University of California, priority 2007, dated 2013).

Common to all, as to type: biochemical
A short description of data set [1]: Single channel conductance of gA phosphate and its hydrolysis product in planar lipid bilayers (Example 3). The settings on record: for single channel conductance (γ): 50 mM CsCl, 1 mM MgCl2, 0.5 mM K2CO3, pH 9.8, slopes of I-V curves. The protocol: Formation of Planar Lipid Bilayers: Planar lipid bilayers were formed by the “folding technique” as previously described. The recording electrolyte was 1 mM MgCl2, 50 mM CsCl buffered with 0.5 mM K2CO3 at pH 9.8. Briefly, we spread a solution containing 25 mg mL^−1 1,2-diphytanoyl-sn-glycero-3-phosphatidylcholine (DiPhyPC) lipids in pentane at the air-water interface of the electrolyte solution in both compartments of the bilayer setup. 3 mL of the total volume of 4 mL of electrolyte solution in each bilayer compartment was aspirated into a syringe, followed by dispensing the electrolyte solution back into each compartment.
Ion Channel Measurements: We performed single channel recordings in “voltage clamp mode” using Ag/AgCl pellet electrodes (Warner Instruments) in each compartment of the bilayer setup. Data acquisition and storage was carried out using custom software in combination with an EPC-7 patch clamp amplifier from Heka (set at a gain of 10 mV pA-1 and a filter cutoff frequency of 3 kHz). The data acquisition board (National Instruments, Austin, Tx) for the amplifier was set to a sampling frequency of 15 kHz. The current traces shown in the FIG. 2 were further filtered using a digital Gaussian low-pass filter with a cutoff frequency of 4 Hz.
Analysis of the single channel current traces was performed by computing histograms of the currents from the original current versus time traces with ClampFit 9.2 software from Axon Instruments. From these histograms we extracted the main current values by fitting a Gaussian function to the peaks in the histograms. All conductance values were obtained from the slopes of I-V curves.

Data set [2] relates to alkaline phosphatase (AP). The experiment in a line: Enzymatic hydrolysis of gA phosphate in the presence of AP monitored by single ion channel recordings. The procedure: To detect a change in single ion channel currents, gA phosphate was added to a final concentration of about 200 pM to both compartments of a planar lipid bilayer platform (FIG. 15) containing a recording electrolyte. AP was added to a final concentration of about 600 nM and the enzymatic conversion of gA phosphate to its hydrolysis product over time was monitored. We estimated the time-dependent conversion of gA phosphate to its hydrolysis product by comparing the fraction of events from gA phosphate to the fraction of events from its hydrolysis product throughout the course of the reaction. […]
Procedure for monitoring the enzymatic hydrolysis of 6 in the presence of AP using single ion channel recordings: For in situ measurements, about 19 μL (from a 100 ng mL-l solution in ethanol) of gA phosphate (to afford a final concentration of 200 pM of 6) was added to each compartment of a bilayer setup containing recording electrolyte. […] Ion channel events were recorded continuously over the course of the reaction. […] Single ion channel events were recorded during a 10 min time window once a day (50-250 events) over the course of 4 days by filling both compartments of the bilayer setup with 4 mL of the solutions with the desired AP concentration. […]

Data set [3] in a line: Single channel recordings of gA derivatives in planar lipid bilayers (Example 2). The conditions noted are these: 20 mM KCl. The protocol: Formation of Planar Lipid Bilayers: Planar lipid bilayers were formed by the “folding technique.” Briefly, a film (e.g., Teflon®, Eastern Scientific Inc, pore diameter 0.1-0.2 mm) that was pretreated on both sides of the pore with 2 μL of 5% (v/v) hexadecane in pentane. This film was mounted using vacuum grease (Dow Corning, High vacuum grease) to a custom-made Teflon chamber separating two buffer compartments each with a volume capacity of 4 mL. After addition of 1 mL of electrolyte (20 mM KCl buffered with 0.2 mM HEPES pH 7.4 or 140 mM KCl buffered with 10 mM phosphate pH 8.0) to each compartment, lipids were spread at the air-water interface of the electrolyte solution in both compartments. Three additional milliliters of the same electrolyte solution were added to each compartment to raise the liquid level above the aperture in the Teflon film. The bilayers were formed on the pore of the Teflon film by aspirating the electrolyte solution into a 3 mL syringe, followed by dispensing the electrolyte solution back into each compartment.
Ion Channel Measurements: Single channel recordings in “voltage clamp mode” were performed using Ag/AgCl pellet electrodes (Warner Instruments) in each compartment of the bilayer setup. Data acquisition and storage was carried out using custom software in combination with an EPC-7 patch clamp amplifier from Heka (set at a gain of 10 mV pA^−1 and a filter cutoff frequency of 3 kHz). The data acquisition board for the amplifier was set to a sampling frequency of 15 kHz. All current traces shown in the figures were further filtered using a digital Gaussian low-pass filter with a cutoff frequency of 4 Hz.
The analysis of single channel current traces was performed by computing histograms of the currents from the original current versus time traces with ClampFit 9.2 software from Axon Instruments. From these histograms, main current values were extracted by fitting a Gaussian function to the peaks in the histograms. […]

A short description of data set [4]: Monitoring a 1,3-dipolar cycloaddition (click) reaction in situ using single ion channel recordings. The settings on record: 40 pM gramicidazide, 2 mM propargyl sulfonate, 0.5 mM CuSO4. The protocol:
Gramicidazide was added to a final concentration of 40 pM to both 4 mL chambers of a stirred lipid bilayer setup comprised of zwitterionic 1,2-diphytanoyl-sn-glycero-3-phosphatidylcholine (DiPhyPC) lipids that separated two compartments containing 20 mM KCl, 0.2 mM HEPES buffer, 2 mM sodium ascorbate (as a reducing agent for Cu^II), and 2 mM propargyl sulfonate. The final pH of this solution was 6.9. CuSO4 was added (to give a final concentration of Cu^II of 0.5 mM) to both chambers of the bilayer setup and recorded the single ion channel activity over time. […] The cycloaddition reaction was monitored at a constant applied potential of +75 mV. […]
Monitoring a 1,3-dipolar cycloaddition (“click”) reaction in situ using single ion channel recordings: About 3 μl, (from a 100 ng mL^−1 solution in ethanol) of gramicidazide was added (to afford a final concentration of 40 pM of gramicidazide) to each compartment of a bilayer setup containing as electrolyte 20 mM KCl and 0.2 mM HEPES buffer. […] This strategy made it possible to observe measured currents that would frequently return to baseline (i.e., current steps separated by no observed channel events). Consequently, a small number of events over time were observed, and thus analyzed the data over a window of time rather than at specific time points. […] For the 4-15 minute time window, we measured 26 total channel events. […]

As for “gramicidine A (gA) phosphate [gA phosphate]”, the “single channel conductance (γ)” value in data set [1] is “≈ 16 pS”; in data set [1] (listed as 6), 16.4±0.3 pS and ≈ 16 pS; in data set [1] (listed as phosphorylated derivative) it was 16.4±0.3 pS. The “factor by which conductance is larger than that of the gA phosphate hydrolysis product” value in data set [1] (125 mV, buffered recording electrolyte) is 4. The “time after which almost all recorded ion channel events originated from the hydrolysis product” value in data set [2] (200 pM gA phosphate, 600 nM AP, in situ) is recorded as 35 min. For the same substance, the “hydrolysis in the absence of AP” value in data set [2] (ion channel experiments over the course of 1 h, pH 9.8 recording electrolyte) is recorded as “No hydrolysis was observed”.

In the case of gramicidazide, in data set [3] (0.2 mM HEPES, 2 mM sodium ascorbate, 2 mM propargyl sulfonate, 0.5 mM CuSO4, pH 6.9, pure samples), the “single channel conductance (γ)” value came out at 3.3±0.1 pS. Moreover, in data set [3] (applied potential 100 mV, 0.2 mM HEPES pH 7.4), the “ion channel activity in planar lipid bilayers” value was “retained well-defined ion channel activity”. Besides, the “time after which the click reaction was complete” value in data set [4] is roughly 90 min.
